# Measured values as given in patent US20260373248A1, “DEGRADABLE PEPTOIDS” (Medici Therapeutics, Inc., priority 2023, published 2026).
# Starred links: 1 amine or outer side, 2 acyl side, 3 side chain; linkers in the order of their positions; H or OH if unused. Non-standard residues stand in square brackets, D forms with d. Residues, ends and D or L forms follow the SMILES beside them. *: point of attachment. Gly(N-(3-decanoyloxypropyl)) = CCCCCCCCCC(=O)OCCCNCC(=O)O; N(3-lauroyloxypropyl)Gly = CCCCCCCCCCCC(=O)OCCCNCC(=O)O; Gly(N-3-morpholinopropyl) = O=C(O)CNCCCN1CCOCC1; N(2-ethylhexyl)Gly = CCCCC(CC)CNCC(=O)O; X2 = CCCCCCC(CCCC)CN(CC(=O)[*:2])[*:1]; Gly(N-dodecyl) = CCCCCCCCCCCCNCC(=O)O; N(CH(CH2OH)2)Gly = O=C(O)CNC(CO)CO; For = O=C*
# Key:
# [1] = test system: hEPO; experiment: Quantification of hEPO in serum after IV injection of mRNA (Human EPO ELISA); format: in vivo; details: Balb/c mice, 2.5 μg mRNA IV, serum after 6 hours
# Procedure: Balb/c mice were treated with 2.5 μg of mRNA coding for human erythropoiten via IV injection according to a similar method as in Example 4. hEPO protein in the serum was quantified after 6 hours using the Human EPO ELISA Kit from Invitrogen (catalog #BMS2035-2). Wash buffer (PBS with 1% tween 20) and assay buffer (PBS with 1% tween 20, 10% BSA) were prepared from a 20× concentrate with milli-Q water. Serum samples were diluted with PBS according to expected EPO concentration, with a 50× dilution for low expression samples and up to a 30,000× dilution for samples expected to have high expression. Microwell strips were washed in a plate washer with wash buffer and tapped on an absorbent pad to remove excess buffer. 100 μL of sample diluent were added to each well that will be used for the standard curve. 50 μL of sample diluent was added to each sample well.
# The standard curve was prepared by reconstituting the human erythropoietin standard by adding the volume of water listed on the vial label. Standard was swirled gently and allowed to reconstitute for 10 minutes prior to use, then 100 μL is added to standard wells and mixed well. 100 μL from standard wells were then transferred to sample wells and mixed well. This was repeated 5 times to produce 2 columns of standard dilutions from 100 to 1.6 mIU/mL. 100 μL was discarded from the last microwells. The final 2 wells contained 100 μL of sample diluent and served as a blank. An external standard was also included to facilitate a mIU/mL conversion to ng/mL. The same serial dilution method was repeated starting with the external standard at 6.25 ng/mL. Once the standards were added, 50 μL of each sample was added in duplicate to the sample wells. Next, the biotin-conjugate was prepared by diluting 1:100 in assay buffer. 50 μL of biotin-conjugate was added to all wells and the plate was covered with a plate seal and shaken at room temperature for 1 hour. During the last few minutes of shaking, streptavidin-HRP was prepared by diluting 1:100 in assay buffer. The plate was washed on a plate washer and tapped on an absorbent pad to remove remaining wash buffer.
# 100 μL of the diluted streptavidin-HRP was added to each well and the plate was sealed and shaken for 15 minutes at room temperature. After 15 minutes, the plate seal was removed and the plate was washed on a plate washer and remaining wash buffer tapped out on an absorbent pad. 100 μL of TMB substrate was added to all wells and the plate was incubated for 10 minutes at room temperature out of direct light. Color development was checked every few minutes and the assay was stopped when the highest standard was dark blue. The reaction was stopped by pipetting 100 μL of stop solution into each well. Immediately after stop solution was added, the plate was gently tapped to ensure the solution was mixed. Absorbance was then read at 450 nm for each well. A standard curve was plotted for both the kit-provided standards (mIU/mL) and the external standard (ng/mL) and fit using Prism. Sample absorbances that fell within the standard curve were interpolated and adjusted for dilution (including a 2× assay dilution). Samples that were not within the standard curve were repeated at an adjusted dilution.
# [2] = Peptoid quantity remaining in liver by HPLC-TOF mass spectrometry; format: in vivo; details: liver homogenate
# Procedure: Peptoid quantity in liver was determined via high-performance liquid chromatography coupled with time-of-flight mass spectrometer (HPLC-TOF). The entire liver was weighed, and then two sections were isolated using a provided biopsy punch for liver homogenization. Liver homogenate sample was prepared by resuspending 20 mg liver tissue in 400 μL extraction solvent (IPA/MeOH=8/2) containing an internal standard (400 pg/μL) followed by bead homogenization (45 sec per cycle for 3-4 cycles). Homogenized samples were centrifuged at 12,000 rpm for 8 min at 6 °C. The resulting supernatant was collected and stored at −20 °C for further LC analysis. 5 μL of the resulting supernatant sample from solid or liquid tissue was injected into a BEH C8 column on an Agilent 1290 Infinity II liquid chromatograph coupled with an Agilent 6230 LC-TOF system. Concentrations of peptoids were determined by a linear calibration curve (linear range:0.2-50 μg/g for solid tissue). Standard calibration curve solutions were prepared by spiking untreated liver followed by homogenization and centrifugation.
# [3] = Delivery vehicle size and polydispersity by dynamic light scattering; format: physicochemical
# Summary of the method: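 LNPs made by microfluidic mixing of ethanolic peptoid/DSPC/cholesterol/DMG-PEG2000 (20:1.79:7.16:1.84 by weight) with mRNA in 10 mM citrate pH 5.0 at 1:3 by volume, then dialyzed overnight at 4 °C against tris-sucrose pH 7.4. Size and PDI read by dynamic light scattering in PBS.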
# [4] = test system: mRNA; experiment: mRNA encapsulation (modified Quant-iT RiboGreen assay); format: physicochemical; details: for mean percent encapsulation of RNA: RiboGreen, without vs with Triton X-100; for % Encapsulation: mRNA
# Summary of the method: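 Peptoid nanoparticles were incubated with Triton X-100 for 10 min to release entrapped mRNA, then mixed with RiboGreen reagent and read by fluorescence (ex 485 nm/em 530 nm). Percent encapsulation was derived from the ratio of fluorescence without versus with Triton X-100.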
# [5] = test system: firefly luciferase; experiment: In vivo firefly luciferase expression after intravenous injection of fLuc mRNA delivery vehicles (IVIS imaging); set-up: species or system female Balb/c mice; details: for Total Flux: mice, 2.5 ug fLuc mRNA intravenously, 6 hours post-injection; for Total Flux (luciferase expression): fLuc mRNA, intravenous, Balb/c mice
# Summary of the method: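 Female Balb/c mice (6-8 weeks) given 2.5 ug fLuc mRNA in Nutshells IV. At 6 hours, IP D-luciferin (30 mg/mL, 10 μL/g) under isoflurane; IVIS imaging 10 minutes later, then harvested organs imaged ex vivo. Read-out: total photon flux in regions of interest.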
# [6] = test system: luciferase; experiment: Luciferase expression after local (intramuscular or subcutaneous) administration of mRNA; format: in vivo; details: mRNA 0.01 mpk, 6 hours; for IM Flux: intramuscular; for SC Flux: subcutaneous
# Summary of the method: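 Female Balb/c mice (6-8 weeks) received fLuc mRNA in aminolipidated peptoid Nutshells at 0.01 mpk subcutaneously or intramuscularly, or 0.1 mpk intratumorally. At 6 hours, anesthetized mice were given D-luciferin IP and imaged 10 minutes later; harvested organs were also imaged and total photon flux quantified in regions of interest.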
# [7] = DLS in PBS, peptoid:DSPC:Cholesterol:DMG-PEG2000 weight ratio 20:1.79:7.16:1.84, mRNA
SMILES,% of injected dose remaining in liver [2] [%],"PDI [3, 7]","Particle Size [3, 7] [nm]",mean percent encapsulation of RNA [4] [%],hEPO [1] [ng/mL],Total Flux [5] [p/s],IM Flux [6] [p/s],SC Flux [6] [p/s],also measured
CCCCCCCCCC(=O)OCCCN(CC(=O)N(CC(=O)N(CC(=O)N(CCCOC(=O)CCCCCCCCC)CC(=O)N(CC(N)=O)CC(CCCC)CCCCCC)CC(CC)CCCC)CC(CCCC)CCCCCC)C(=O)CN(CC(CC)CCCC)C(=O)CNC(CO)CO (centres unmarked) [Compound 61] (H-[N(CH(CH2OH)2)Gly][N(2-ethylhexyl)Gly][Gly(N-(3-decanoyloxypropyl))][X2][N(2-ethylhexyl)Gly][Gly(N-(3-decanoyloxypropyl))][X2]-NH2),13.39,0.081,75.4,95.1,428,1.96E+09,1.45E+08,1.99E+08,–
CCCCCCCCCCCC(=O)OCCN(CC(=O)N(CCOC(=O)CCCCCCCCCCC)CC(=O)N(CC(=O)N(CCOC(=O)CCCCCCCCCCC)CC(=O)N(CCOC(=O)CCCCCCCCCCC)CC(=O)N(CC(N)=O)CC(CC)CCCC)CC(CC)CCCC)C(=O)CN(C=O)CCCN1CCOCC1 (centres unmarked) [Compound 65],14.67,0.248,91.4,39.1,77.7,8.68E+08,8.99E+08,2.00E+08,–
CCCCCCCCCCCCN(C=O)CC(=O)N(CCCOC(=O)CCCCCCCCC)CC(=O)N(CC(=O)N(CCCN1CCOCC1)CC(=O)N(CC(=O)N(CCCOC(=O)CCCCCCCCC)CC(=O)N(CCCCCCCCCCCC)CC(N)=O)CC(CC)CCCC)CC(CC)CCCC (centres unmarked) [Compound 88] (For-[Gly(N-dodecyl)][Gly(N-(3-decanoyloxypropyl))][N(2-ethylhexyl)Gly][Gly(N-3-morpholinopropyl)][N(2-ethylhexyl)Gly][Gly(N-(3-decanoyloxypropyl))][Gly(N-dodecyl)]-NH2),16.59,0.118,73.1,7.4,109,3.77E+08,4.29E+07,6.88E+07,Particle Size ([3]; formulation recipe F2): 72.4 nm; % Encapsulation ([4]; formulation recipe F2): 71.8%; Total Flux (luciferase expression) ([5]; formulation recipe F2): 1.59E+09 p/s
CCCCCCCCCC(=O)OCCCN(C=O)CC(=O)N(CCCOC(=O)CCCCCCCCC)CC(=O)N(CC(=O)N(CCCN1CCOCC1)CC(=O)N(CCCOC(=O)CCCCCCCCC)CC(=O)N(CCCOC(=O)CCCCCCCCC)CC(=O)N(CC(N)=O)CC(CC)CCCC)CC(CC)CCCC (centres unmarked) [Compound 112] (For-[Gly(N-(3-decanoyloxypropyl))][Gly(N-(3-decanoyloxypropyl))][N(2-ethylhexyl)Gly][Gly(N-3-morpholinopropyl)][Gly(N-(3-decanoyloxypropyl))][Gly(N-(3-decanoyloxypropyl))][N(2-ethylhexyl)Gly]-NH2),0.19,0.138,95.4,39.2,345,1.13E+09,1.80E+08,2.33E+08,Particle Size ([3]; formulation recipe R5): 87.6 nm; % Encapsulation ([4]; formulation recipe R5): 71.6%; Total Flux (luciferase expression) ([5]; formulation recipe R5): 2.67E+08 p/s
CCCCCCCCCCCC(=O)OCCCN(CC(=O)N(CC(=O)N(CC(=O)N(CCCOC(=O)CCCCCCCCCCC)CC(=O)N(CC(=O)N(CC(N)=O)CC(CC)CCCC)CC(CC)CCCC)CC(CC)CCCC)CC(CC)CCCC)C(=O)CNC(CO)CO (centres unmarked) [Compound 51] (H-[N(CH(CH2OH)2)Gly][N(3-lauroyloxypropyl)Gly][N(2-ethylhexyl)Gly][N(2-ethylhexyl)Gly][N(3-lauroyloxypropyl)Gly][N(2-ethylhexyl)Gly][N(2-ethylhexyl)Gly]-NH2),16.40,0.128,61.4,80.3,591,4.42E+09,1.84E+08,2.26E+08,Particle Size ([3]; formulation recipe D22): 61.4 nm; Particle Size ([3]; formulation recipe O5): 58.4 nm; Particle Size ([3]; formulation recipe O6): 56.7 nm; % Encapsulation ([4]; formulation recipe D22): 80.3%; % Encapsulation ([4]; formulation recipe O5): 91.9%; % Encapsulation ([4]; formulation recipe O6): 91.8%; Total Flux (luciferase expression) ([5]; formulation recipe D22): 4.42E+09 p/s; Total Flux (luciferase expression) ([5]; formulation recipe O5): 1.50E+09 p/s; Total Flux (luciferase expression) ([5]; formulation recipe O6): 1.27E+09 p/s

# The next lines start with results.
% of injected dose remaining in liver [2] [%],"PDI [3, 7]","Particle Size [3, 7] [nm]",mean percent encapsulation of RNA [4] [%],SMILES,hEPO [1] [ng/mL],Total Flux [5] [p/s],IM Flux [6] [p/s],SC Flux [6] [p/s],also measured
5.30,0.096,77.8,67.3,CCCCCCCCCCCC(=O)OCCCN(CC(=O)N(CC(=O)N(CC(=O)N(CCCOC(=O)CCCCCCCCCCC)CC(=O)N(CC(N)=O)CC(CC)CCCC)CC(CC)CCCC)CC(CC)CCCC)C(=O)CN(CC(CC)CCCC)C(=O)CN(C=O)CCCN1CCOCC1 (centres unmarked) [Compound 64] (For-[Gly(N-3-morpholinopropyl)][N(2-ethylhexyl)Gly][N(3-lauroyloxypropyl)Gly][N(2-ethylhexyl)Gly][N(2-ethylhexyl)Gly][N(3-lauroyloxypropyl)Gly][N(2-ethylhexyl)Gly]-NH2),87,6.54E+08,1.42E+08,1.33E+08,–
5.86,0.155,91.5,80.0,CCCCCCCCCC(=O)OCCCN(CC(=O)N(CC(=O)N(CC(=O)N(CCCOC(=O)CCCCCCCCC)CC(=O)N(CC(N)=O)CC(CC)CCCC)CC(CC)CCCC)CC(CC)CCCC)C(=O)CN(CC(CC)CCCC)C(=O)CN(C=O)CCCN1CCOCC1 (centres unmarked) [Compound 106] (For-[Gly(N-3-morpholinopropyl)][N(2-ethylhexyl)Gly][Gly(N-(3-decanoyloxypropyl))][N(2-ethylhexyl)Gly][N(2-ethylhexyl)Gly][Gly(N-(3-decanoyloxypropyl))][N(2-ethylhexyl)Gly]-NH2),471,6.71E+09,1.07E+08,1.70E+08,–
